# Laboratory results from US5645072A, “Real time chemical exposure and risk monitor” (priority 1995, dated 1997).
# Experiments:
# [1] = cited from earlier work
# [2] = Real-time measurement of CCl4 in combined exhaled breath of rats after a single intravenous injection (TAGA tandem mass spectrometer); type: in vivo, male Fischer 344 rat
# Excerpt: Male, Fischer 344 rats, weighing 225-275 g, were purchased either with, or without, indwelling jugular vein cannulas from Charles River, Inc., Raleigh, N.C. Animals were housed singularly in solid-bottom cages with hardwood chips, and were acclimated on a 12-hr light/dark cycle prior to use. Rodent chow (NIH-07) and water were provided ad libitum throughout the acclimation period. Cannulas were maintained by periodic flushing with heparinized saline.
# In three different experiments, either two or four animals were placed in nose-only restraint tubes (C. H. Technologies, Westwood, N.J.) with access slots that allow the cannulas to be exteriorized from the animal. Each animal restrainer was connected via a nose port to the rat manifold. The exhaled breath from the rat exited the nose port and was driven into a common mixing chamber by a continuous flow of supplied breathing air. Samples for analysis by the mass spectrometer were continually drawn from the contents of the mixing chamber. Rats placed in restraint tubes are connected to the manifold. The exhaled breath from each animal is passed into a common heated mixing chamber, where the mass spectrometer draws a sample via a drying tube.
# Each animal received a single intravenous injection of CCl4 in isotonic saline, either through the Jugular vein cannula, or via the tail vein. In the first experiment, two animals were utilized, each receiving a dose of 0.6 mg/kg body weight (BW) (250 μl volume) through the jugular vein cannula. Cannulas were flushed with saline immediately following injection. The second and third experiments utilized 4 animals each, with each animal receiving a dose of 1.5 mg/kg BW (1 ml volume) through the tail vein. In all cases, the length of time of injection was approximately 1 minute. The combined exhaled breath from the exposed animals was measured continuously to determine the concentration of CCl4 exhaled. The resulting concentration data were adjusted to account for dilution by the flow of supplied breathing air and divided by the number of rats to allow expression as ng CCl4 /l air per rat.
# The expired breath from the rats was monitored by interfacing the rats to a tandem mass spectrometer. The manifold was a modification of a human breath interface patented by Kenny and Kelly (1991) U.S. Pat. No. 5,042,501 herein incorporated by reference. This device can accommodate up to six rats connected by the nose-only restraint tubes mentioned above. Breathing air (1000 ml/min) is constantly supplied to the rats through the center tube (175 ml volume) of the manifold at a rate greater than the combined ventilation rate of the animals on the system, and can be adjusted for the number of rats being monitored. Re-breathing of the exhaled air was considered to be negligible. The exhaled breath from each rat flows into a common heated mixing chamber (300 ml volume) from which the mass spectrometer continuously draws its sample. The excess exhaled air is vented from the mixing chamber with negligible flow restriction via a large bore hole exit tube. Intensity data from the mass spectrometer was converted to concentration (ppb) through the use of external standards and a calibration curve for carbon tetrachloride. A new calibration curve was generated each day of experimentation.
# During these experiments, the expired breath of the rats was monitored in real-time using a Sciex Trace Atmospheric Gas Analyzer (TAGA) 6000E tandem mass spectrometer (Sciex, Thornhill, Ontario, Canada) equipped with a low-pressure chemical ionization source (LPCI). The TAGA combines sampling and analysis into one rapid operation, while maintaining a very high level of sensitivity and selectivity (Dawson et al. 1982a; 1982b). The TAGA consists of a LPCI source and two mass filters in series, separated by a gas-collision region. Organic molecules in the sampled air stream are ionized directly at approximately 1 torr by the chemical reactions generated about a Townsend discharge electrode. […]
# [3] = Paustenbach et al., 1988, cited from earlier work
# [4] = 0.6 mg/kg BW, jugular vein cannula, two rats, FIG. 3a
compound,measurement,setting,value
"ClC(Cl)(Cl)Cl [CCl4, carbon tetrachloride]",Partition coefficient Blood: Air,"[1]; Gargas et al., 1986b",4.52
same,Partition coefficient Liver: Blood,"[1]; Gargas et al., 1986b",3.14
same,Partition coefficient Slowly perfused: Blood,"[1]; Gargas et al., 1986b",2.0
same,Partition coefficient Richly perfused: Blood,[1]; Set equivalent to partition coefficient for liver: blood,3.14
same,first pass elimination through the lung,[2]; [4],extremely rapid
same,levels available for subsequent distribution into the entire blood volume,[2]; [4],very low levels
same,fraction of CCl4 held up in the circulating blood supply,"[2]; 1.5 mg/kg BW, tail vein, four rats, FIG. 3b, compared with jugular vein",larger fraction
same,elimination through the lung (exhalation profile),"[2]; 1.5 mg/kg BW, tail vein, four rats, FIG. 3b, repeat gave same pattern",initial sharp peak
same,time for which the decay of the CCl4 can be followed after the injection before returning to baseline,"[2]; FIGS. 3a and 3b, single i.v. injection",30 to 35 min
same,Tmax,"[2]; rat, exhaled breath, iv, single i.v. injection, 0.6 mg/kg jugular vein or 1.5 mg/kg tail vein, consistent with calculated sample-introduction delay (28.5 seconds), read-out: peak concentration of CCl4 in exhaled breath occurred in (time from the end of the injection) (converted)",~30 s
same,acetone in exhaled breath (biomarker of CCl4-induced lipid peroxidation),[2]; single i.v. injection of CCl4,not detectable
same,Vmaxc (Metabolism),[3]; body weight 250 g,13.8 μg CCl4 /min per kg
same,Km (Metabolism),[3],0.25 µg/mL
